For the assay, the system named is cat fleas (Ctenocephalides felis). Kind of assay: Efficacy of various isoxazolines against cat fleas on mice (Example 3). To be noted: mice, oral 20 mg/kg, infested 1 hr after treatment; for pest or weed control at 20 mg/kg: Ctenocephalides felis, po, read-out: Flea inhibition relative to negative control. The format is in vivo. The method, then: In this experiment, mice were randomly assigned to a treatment group or a negative control (untreated) group. Each group consisted of three mice. The mice in the treatment groups were orally administered 20 mg/kg bodyweight of various isoxazolines dissolved in 7% DMF-premix and 93% purified water (aqua ad injectabilia). The application volume of these treatments was 0.01 mL/g bodyweight. One hour after treatment, each mouse was sedated and generally infested (whole body) with 30 vital, adult fleas (C. felis). To achieve this, the sedated mice were placed into an infestation-jar, and the fleas were placed directly onto the fur. After approximately 30 minutes of feeding, fleas were recovered from the mice. Assessments for inhibition and mortality were conducted 1 hr, 24 hr, and 48 hr after each infestation. The efficacy was calculated as the percentage of inhibited fleas in the treatment groups relative to the negative control group.

Like-named read-outs stand apart in the source and are kept apart here.

Turning to `COC(=O)N(C(=O)c1ccc(C2=NOC(c3cc(Cl)cc(Cl)c3)(C(F)(F)F)C2)cc1C)c1ncc(Cl)cn1` (stereo not shown) [Compound 5-48], the pest or weed control at 20 mg/kg runs as follows: (24 h, 24 hr after infestation) 91.1%; (48 h, 48 hr after infestation) 91.1%.
Consider `Cc1cc(C2=NOC(c3cc(Cl)cc(Cl)c3)(C(F)(F)F)C2)ccc1C(=S)NCc1cscn1` (stereo not shown) [Compound X-1], for which the pest or weed control at 20 mg/kg is 4.3% (1 h, 1 hr after infestation); 100% (24 h, 24 hr after infestation); 100% (48 h, 48 hr after infestation).
Consider `O=C(CNC(=O)c1ccc(C2=NOC(c3cc(Cl)c(Cl)c(C(F)(F)F)c3)(C(F)(F)F)C2)cc1)NCC(F)(F)F` (stereo not shown) [Compound 5-39], for which the pest or weed control at 20 mg/kg is, setting by setting: (1 h, 1 hr after infestation) 13.3%; (24 h, 24 hr after infestation) 99%; (48 h, 48 hr after infestation) 99%.
As to `CC(=O)N(C(=O)c1ccc(C2=NOC(c3cc(Cl)cc(Cl)c3)(C(F)(F)F)C2)cc1C)c1ncc(C#N)cn1` (stereo not shown) [Compound 5-30], the pest or weed control at 20 mg/kg reads like this: (1 h, 1 hr after infestation) 2.2%; (24 h, 24 hr after infestation) 67.8%; (48 h, 48 hr after infestation) 68.9%.
Turning to `Cc1cc(C2=NOC(c3cc(Cl)cc(Cl)c3)(C(F)(F)F)C2)ccc1C(=O)NC(C)C(=O)NCC(F)(F)F` (stereo not shown) [Compound 5-54], the “Flea inhibition relative to negative control” value (1 hr after infestation) was 5-47 (0%), 5-54 (0%),.
As to `CCO/C(N)=N\C(=O)c1ccc(C2=NOC(c3cc(Cl)cc(Cl)c3)(C(F)(F)Cl)C2)cc1C` (stereo not shown) [Compound 5-38], the pest or weed control at 20 mg/kg by setting is: (1 h, 1 hr after infestation) 2.3%; (24 h, 24 hr after infestation) 96.7%; (48 h, 48 hr after infestation) 97.7%.
In the same order, the values of `Cc1cc(C2=NOC(c3cc(Cl)c(F)c(C(F)(F)F)c3)(C(F)(F)F)C2)ccc1C(=O)NCC(=O)NCC(F)(F)F` (stereo not shown) [Compound 5-41] are 0%, 94.3% and 95.6%.
Regarding `CCc1cc(C2=NOC(c3cc(Cl)cc(Cl)c3)(C(F)(F)F)C2)ccc1C(=O)NCC(F)(F)F` (stereo not shown) [Compound 5-15], the pest or weed control at 20 mg/kg reads like this: (1 h, 1 hr after infestation) 0%; (24 h, 24 hr after infestation) 31.1%; (48 h, 48 hr after infestation) 36.7%.
On to `COC(=O)N(C)C(=O)c1ccc(C2=NOC(c3cc(Cl)cc(Cl)c3)(C(F)(F)F)C2)cc1I` (stereo not shown) [Compound 5-20], for which the pest or weed control at 20 mg/kg reads like this: (1 h, 1 hr after infestation) 4.4%; (24 h, 24 hr after infestation) 96.7%; (48 h, 48 hr after infestation) 97.8%.
On the same counts, the results for `Cc1cc(C2=NOC(c3cc(Cl)cc(Cl)c3)(C(F)(F)F)C2)ccc1C(=O)NC1CCCO1` (stereo not shown) [Compound 5-64] are 50%, 97.8% and 97.8%.
For `Cc1cc(C2=NOC(c3cc(Cl)cc(Cl)c3)(C(F)(F)F)C2)ccc1C(=O)N(C(=O)C1CC1)c1ncc(Cl)cn1` (stereo not shown) [Compound 5-24], the pest or weed control at 20 mg/kg turned out to be 0% (1 h, 1 hr after infestation); 84.4% (24 h, 24 hr after infestation); 86.7% (48 h, 48 hr after infestation).
With `CCO/N=C\NC(=O)c1ccc(C2=NOC(c3cc(Cl)cc(Cl)c3)(C(F)(F)F)C2)cc1C` (stereo not shown) [Compound 5-50], for the setting “1 hr after infestation”, the “Flea inhibition relative to negative control” value is “(27.7%)”.
For `CON=CNC(=O)c1ccc(C2=NOC(c3cc(Cl)c(Cl)c(Cl)c3)(C(F)(F)F)C2)cc1C` (stereo not shown) [Compound 5-33], the pest or weed control at 20 mg/kg (1 h, 1 hr after infestation) turned out to be 0%; the pest or weed control at 20 mg/kg (24 h, 24 hr after infestation) came to 100%; the pest or weed control at 20 mg/kg (48 h, 48 hr after infestation) came to 100%.
Take `COC(=O)N(Cc1ccccn1)C(=O)c1ccc(C2=NOC(c3cc(Cl)cc(Cl)c3)(C(F)(F)F)C2)cc1C` (stereo not shown) [Compound 5-19]: the pest or weed control at 20 mg/kg reads like this: (1 h, 1 hr after infestation) 0%; (24 h, 24 hr after infestation) 90%; (48 h, 48 hr after infestation) 94.4%.
As for `COC(=O)N(COC(C)C)C(=O)c1ccc(C2=NOC(c3cc(Cl)cc(Cl)c3)(C(F)(F)F)C2)cc1C` (stereo not shown) [Compound 5-27], the pest or weed control at 20 mg/kg was found to be 12.2% (1 h, 1 hr after infestation); 72.2% (24 h, 24 hr after infestation); 84.4% (48 h, 48 hr after infestation).

The values above are taken from patent US20240239759A1, “ISOXAZOLINE COMPOSITIONS AND THEIR USE AS ANTIPARASITICS” (Intervet Inc., priority 2007, published 2024).
